Laboratory results: ChEMBL document CHEMBL1151757, “Synthesis, radiosynthesis, and biological evaluation of fluorine-18-labeled 2beta-carbo(fluoroalkoxy)-3beta-(3'-((Z)-2-haloethenyl)phenyl)nortropanes: candidate radioligands for in vivo imaging of the serotonin transporter with positron emission tomography” (J Med Chem, 2008)

Legend:
[1] = Ratio of drug uptake in pons to cerebellum in anesthetized cynomolgus monkey after 225 mins postinjection; type: ADME, organism-based, Macaca fascicularis; conditions: in vivo, 3.75 h
[2] = Ratio of drug uptake in medulla to cerebellum in anesthetized cynomolgus monkey after 65 mins postinjection; type: ADME, organism-based, Macaca fascicularis; conditions: in vivo
[3] = Ratio of drug uptake in medulla to cerebellum in anesthetized cynomolgus monkey after 165 mins postinjection; type: ADME, organism-based, Macaca fascicularis; conditions: in vivo, 2.75 h
[4] = Drug uptake in anesthetized cynomolgus monkey brain occipital lobe after 18.5 mins postinjection; type: ADME, organism-based, Macaca fascicularis; conditions: in vivo
[5] = Drug uptake in anesthetized cynomolgus monkey brain occipital lobe after 65 mins postinjection; type: ADME, organism-based, Macaca fascicularis; conditions: in vivo
[6] = Drug uptake in anesthetized cynomolgus monkey brain frontal lobe after 235 mins postinjection; type: ADME, organism-based, Macaca fascicularis; conditions: in vivo
[7] = Ratio of drug uptake in midbrain to cerebellum in anesthetized cynomolgus monkey after 215 mins postinjection; type: ADME, organism-based, Macaca fascicularis; conditions: in vivo
[8] = Ratio of drug uptake in occipital lobe to cerebellum in anesthetized cynomolgus monkey after 235 mins postinjection; type: ADME, organism-based, Macaca fascicularis; conditions: in vivo
Midbrain [9] = experiment: Drug uptake in anesthetized cynomolgus monkey brain midbrain after 235 mins postinjection; type: ADME, organism-based, Macaca fascicularis; conditions: in vivo
Pons [10] = experiment: Drug uptake in anesthetized cynomolgus monkey brain pons after 18.5 mins postinjection; type: ADME, organism-based, Macaca fascicularis; conditions: in vivo
Pons [11] = experiment: Drug uptake in anesthetized cynomolgus monkey brain pons after 35 mins postinjection; type: ADME, organism-based, Macaca fascicularis; conditions: in vivo
[12] = Ratio of drug uptake in caudate to cerebellum in anesthetized cynomolgus monkey after 65 mins postinjection; type: ADME, organism-based, Macaca fascicularis; conditions: in vivo
Pons [13] = experiment: Drug uptake in anesthetized cynomolgus monkey brain pons after 115 mins postinjection; type: ADME, organism-based, Macaca fascicularis; conditions: in vivo
Pons [14] = experiment: Drug uptake in anesthetized cynomolgus monkey brain pons after 215 mins postinjection; type: ADME, organism-based, Macaca fascicularis; conditions: in vivo
Pons [15] = experiment: Drug uptake in anesthetized cynomolgus monkey brain pons after 225 mins postinjection; type: ADME, organism-based, Macaca fascicularis; conditions: in vivo, 3.75 h
Pons [16] = experiment: Drug uptake in anesthetized cynomolgus monkey brain pons after 235 mins postinjection; type: ADME, organism-based, Macaca fascicularis; conditions: in vivo
Medulla [17] = experiment: Drug uptake in anesthetized cynomolgus monkey brain medulla after 6.5 mins postinjection; type: ADME, organism-based, Macaca fascicularis; conditions: in vivo
Medulla [18] = experiment: Drug uptake in anesthetized cynomolgus monkey brain medulla after 15.5 mins postinjection; type: ADME, organism-based, Macaca fascicularis; conditions: in vivo
Medulla [19] = experiment: Drug uptake in anesthetized cynomolgus monkey brain medulla after 45 mins postinjection; type: ADME, organism-based, Macaca fascicularis; conditions: in vivo, 0.75 h
Medulla [20] = experiment: Drug uptake in anesthetized cynomolgus monkey brain medulla after 55 mins postinjection; type: ADME, organism-based, Macaca fascicularis; conditions: in vivo
Medulla [21] = experiment: Drug uptake in anesthetized cynomolgus monkey brain medulla after 65 mins postinjection; type: ADME, organism-based, Macaca fascicularis; conditions: in vivo
Medulla [22] = experiment: Drug uptake in anesthetized cynomolgus monkey brain medulla after 75 mins postinjection; type: ADME, organism-based, Macaca fascicularis; conditions: in vivo, 1.25 h
Medulla [23] = experiment: Drug uptake in anesthetized cynomolgus monkey brain medulla after 85 mins postinjection; type: ADME, organism-based, Macaca fascicularis; conditions: in vivo
Medulla [24] = experiment: Drug uptake in anesthetized cynomolgus monkey brain medulla after 105 mins postinjection; type: ADME, organism-based, Macaca fascicularis; conditions: in vivo, 1.75 h
Medulla [25] = experiment: Drug uptake in anesthetized cynomolgus monkey brain medulla after 125 mins postinjection; type: ADME, organism-based, Macaca fascicularis; conditions: in vivo
[26] = Drug uptake in anesthetized cynomolgus monkey brain cerebellum after 215 mins postinjection; type: ADME, organism-based, Macaca fascicularis; conditions: in vivo
[27] = Ratio of drug uptake in thalamus to cerebellum in anesthetized cynomolgus monkey after 9.5 mins postinjection; type: ADME, organism-based, Macaca fascicularis; conditions: in vivo
Caudate [28] = experiment: Drug uptake in anesthetized cynomolgus monkey brain caudate after 105 mins postinjection; type: ADME, organism-based, Macaca fascicularis, Caudate nucleus; conditions: in vivo, 1.75 h
Caudate [29] = experiment: Drug uptake in anesthetized cynomolgus monkey brain caudate after 215 mins postinjection; type: ADME, organism-based, Macaca fascicularis, Caudate nucleus; conditions: in vivo
Caudate [30] = experiment: Drug uptake in anesthetized cynomolgus monkey brain caudate after 235 mins postinjection; type: ADME, organism-based, Macaca fascicularis, Caudate nucleus; conditions: in vivo
[31] = Ratio of drug uptake in occipital lobe to cerebellum in anesthetized cynomolgus monkey after 4.5 mins postinjection; type: ADME, organism-based, Macaca fascicularis; conditions: in vivo, 0.075 h
[32] = Ratio of drug uptake in occipital lobe to cerebellum in anesthetized cynomolgus monkey after 18.5 mins postinjection; type: ADME, organism-based, Macaca fascicularis; conditions: in vivo
Thalamus [33] = experiment: Drug uptake in anesthetized cynomolgus monkey brain thalamus after 27.5 mins postinjection; type: ADME, organism-based, Macaca fascicularis; set-up: unit not given here; conditions: in vivo
Thalamus [34] = experiment: Drug uptake in anesthetized cynomolgus monkey brain thalamus after 45 mins postinjection; type: ADME, organism-based, Macaca fascicularis; set-up: unit not given here; conditions: in vivo, 0.75 h
Putamen [35] = experiment: Drug uptake in anesthetized cynomolgus monkey brain putamen after 6.5 mins postinjection; type: ADME, organism-based, Macaca fascicularis; set-up: unit not given here; conditions: in vivo
Putamen [36] = experiment: Drug uptake in anesthetized cynomolgus monkey brain putamen after 27.5 mins postinjection; type: ADME, organism-based, Macaca fascicularis; set-up: unit not given here; conditions: in vivo
Putamen [37] = experiment: Drug uptake in anesthetized cynomolgus monkey brain putamen after 55 mins postinjection; type: ADME, organism-based, Macaca fascicularis; set-up: unit not given here; conditions: in vivo
Thalamus [38] = experiment: Drug uptake in anesthetized cynomolgus monkey brain thalamus after 55 mins postinjection; type: ADME, organism-based, Macaca fascicularis; set-up: unit not given here; conditions: in vivo
Thalamus [39] = experiment: Drug uptake in anesthetized cynomolgus monkey brain thalamus after 85 mins postinjection; type: ADME, organism-based, Macaca fascicularis; set-up: unit not given here; conditions: in vivo
Thalamus [40] = experiment: Drug uptake in anesthetized cynomolgus monkey brain thalamus after 115 mins postinjection; type: ADME, organism-based, Macaca fascicularis; set-up: unit not given here; conditions: in vivo
Thalamus [41] = experiment: Drug uptake in anesthetized cynomolgus monkey brain thalamus after 145 mins postinjection; type: ADME, organism-based, Macaca fascicularis; set-up: unit not given here; conditions: in vivo
Thalamus [42] = experiment: Drug uptake in anesthetized cynomolgus monkey brain thalamus after 155 mins postinjection; type: ADME, organism-based, Macaca fascicularis; set-up: unit not given here; conditions: in vivo
Midbrain [43] = experiment: Drug uptake in anesthetized cynomolgus monkey brain midbrain after 85 mins postinjection; type: ADME, organism-based, Macaca fascicularis; set-up: unit not given here; conditions: in vivo
[44] = Ratio of drug uptake in midbrain to cerebellum in anesthetized cynomolgus monkey after 2.5 mins postinjection; type: ADME, organism-based, Macaca fascicularis; conditions: in vivo
[45] = Ratio of drug uptake in medulla to cerebellum in anesthetized cynomolgus monkey after 1.5 mins postinjection; type: ADME, organism-based, Macaca fascicularis; conditions: in vivo, 0.025 h
[46] = Ratio of drug uptake in pons to cerebellum in anesthetized cynomolgus monkey after 1.5 mins postinjection; type: ADME, organism-based, Macaca fascicularis; conditions: in vivo, 0.025 h
Pons [47] = experiment: Drug uptake in anesthetized cynomolgus monkey brain pons after 195 mins postinjection; type: ADME, organism-based, Macaca fascicularis; conditions: in vivo, 3.25 h
Medulla [48] = experiment: Drug uptake in anesthetized cynomolgus monkey brain medulla after 195 mins postinjection; type: ADME, organism-based, Macaca fascicularis; conditions: in vivo, 3.25 h
Medulla [49] = experiment: Drug uptake in anesthetized cynomolgus monkey brain medulla after 205 mins postinjection; type: ADME, organism-based, Macaca fascicularis; conditions: in vivo
[50] = Drug uptake in anesthetized cynomolgus monkey brain occipital lobe after 205 mins postinjection; type: ADME, organism-based, Macaca fascicularis; conditions: in vivo
[51] = Drug uptake in anesthetized cynomolgus monkey brain cerebellum after 195 mins postinjection; type: ADME, organism-based, Macaca fascicularis; conditions: in vivo, 3.25 h
Putamen [52] = experiment: Drug uptake in anesthetized cynomolgus monkey brain putamen after 195 mins postinjection; type: ADME, organism-based, Macaca fascicularis; conditions: in vivo, 3.25 h
[53] = Ratio of drug uptake in caudate to cerebellum in anesthetized cynomolgus monkey after 135 mins postinjection; type: ADME, organism-based, Macaca fascicularis; conditions: in vivo, 2.25 h
[54] = Ratio of drug uptake in caudate to cerebellum in anesthetized cynomolgus monkey after 225 mins postinjection; type: ADME, organism-based, Macaca fascicularis; conditions: in vivo, 3.75 h

O=C(OCC[18F])C1C2CCC(CC1c1cccc(/C=C\I)c1)N2 (centres undefined)
Ratio [1]: 1.6 | Ratio [2]: 1.2 | Ratio [3]: 1.7 | Drug uptake [4]: 2.84 | Drug uptake [5]: 2.86 | Drug uptake [6]: 1.39 | Ratio [7]: 2.2 | Ratio [8]: 0.9 | Drug uptake (Midbrain [9]): 2.94 | Drug uptake (Pons [10]): 2.91 | Drug uptake (Pons [11]): 3.29 | Ratio [12]: 1.1 | Drug uptake (Pons [13]): 2.86 | Drug uptake (Pons [14]): 2.08 | Drug uptake (Pons [15]): 2.03 | Drug uptake (Pons [16]): 1.97 | Drug uptake (Medulla [17]): 2.75 | Drug uptake (Medulla [18]): 3.53 | Drug uptake (Medulla [19]): 4 | Drug uptake (Medulla [20]): 3.96 | Drug uptake (Medulla [21]): 3.97 | Drug uptake (Medulla [22]): 3.78 | Drug uptake (Medulla [23]): 3.75 | Drug uptake (Medulla [24]): 3.58 | Drug uptake (Medulla [25]): 3.27 | Drug uptake [26]: 1.4 | Ratio [27]: 0.9 | Drug uptake (Caudate [28]): 3.33 | Drug uptake (Caudate [29]): 2.09 | Drug uptake (Caudate [30]): 1.99 | Ratio [31]: 0.6 | Ratio [32]: 0.7 | Drug uptake (Thalamus [33]): 4.02 | Drug uptake (Thalamus [34]): 4.3 | Drug uptake (Putamen [35]): 2.54 | Drug uptake (Putamen [36]): 4.16 | Drug uptake (Putamen [37]): 4.37 | Drug uptake (Thalamus [38]): 4.29 | Drug uptake (Thalamus [39]): 4.04 | Drug uptake (Thalamus [40]): 3.58 | Drug uptake (Thalamus [41]): 3.16 | Drug uptake (Thalamus [42]): 3.03 | Drug uptake (Midbrain [43]): 4.67 | Ratio [44]: 1.2

O=C(OCC[18F])C1C2CCC(CC1c1ccc(/C=C\I)cc1)N2 (centres undefined)
Ratio [45]: 1.4 | Ratio [3]: 2.6 | Drug uptake [4]: 1.81 | Drug uptake [5]: 2.38 | Drug uptake [6]: 1.51 | Ratio [7]: 3.9 | Ratio [46]: 0.6 | Ratio [8]: 1.6 | Drug uptake (Midbrain [9]): 4.44 | Drug uptake (Pons [10]): 2.17 | Drug uptake (Pons [11]): 2.74 | Drug uptake (Pons [47]): 3.42 | Drug uptake (Medulla [48]): 3.41 | Drug uptake (Medulla [49]): 3.32 | Drug uptake [50]: 1.73 | Drug uptake [51]: 1.29 | Drug uptake (Putamen [52]): 4.01 | Ratio [53]: 1.8 | Drug uptake (Pons [13]): 3.65 | Drug uptake (Pons [14]): 3.39 | Drug uptake (Pons [15]): 3.34 | Drug uptake (Pons [16]): 3.06 | Drug uptake (Medulla [17]): 2.02 | Drug uptake (Medulla [18]): 2.67 | Drug uptake (Medulla [19]): 3.69 | Drug uptake (Medulla [20]): 3.78 | Drug uptake (Medulla [21]): 3.75 | Drug uptake (Medulla [22]): 3.82 | Drug uptake (Medulla [23]): 3.91 | Drug uptake (Medulla [24]): 3.82 | Ratio [54]: 2.5 | Drug uptake (Medulla [25]): 3.81 | Drug uptake [26]: 1.18 | Ratio [27]: 1 | Drug uptake (Caudate [28]): 3.13 | Drug uptake (Caudate [29]): 2.81 | Drug uptake (Caudate [30]): 2.61 | Ratio [31]: 0.8 | Ratio [32]: 0.7 | Drug uptake (Thalamus [33]): 3.06 | Drug uptake (Thalamus [34]): 3.63 | Drug uptake (Putamen [35]): 1.89 | Drug uptake (Putamen [36]): 3.38 | Drug uptake (Putamen [37]): 4.02 | Drug uptake (Thalamus [38]): 3.78 | Drug uptake (Thalamus [40]): 4.06 | Drug uptake (Thalamus [41]): 3.98 | Drug uptake (Thalamus [42]): 3.97 | Drug uptake (Midbrain [43]): 4.42 | Ratio [44]: 0.9
